Holding throughout (type): in vivo
The subject of assay [1] is undesirable plants of both the monocotyledonous and the dicotyledonous species. The assay can be described thus: Herbicidal activity, general. The note with it: for herbicidal activity: 16 pounds per acre. An excerpt: All of the 3-substituted compounds of the pyrido [3,2-d]pyrimidine-2,4(1H,3H)-dione and lumazine families made from intermediate amides produced by the method of this invention have an unexpectedly high order of herbicidal activity.
In using the compound, seeds of the types of plants set forth in Table II were sown in fresh soil. In the preemergence test the soil was sprayed with a solution of the test compound immediately after the seeds were planted, and before any noticeable growth developed. The solution was about a 2 percent by weight solution of the compound in acetone and/or alcohol. The compound was applied at the rate of 16 pounds per acre of soil surface.
Approximately 3 weeks after spray application, the herbicidal activity of the compound was determined by visual observation of the treated area in comparison with untreated control areas. These observations are reported below in Table II wherein the average activity rating is reported as the percent control of plant growth.
In the postemergence test the soil and developing plants were sprayed approximately 2 weeks after the seeds were sown. The compound was applied at the rate of 8 pounds per acre from about a 2 percent by weight solution of the test compound in acetone and/or alcohol. The postemergence herbicidal activity was measured in the same way as the preemergence activity; i.e. visual observation approximately 11 days after spraying, and expressed as the percent control of plant growth.

The test system of assay [2] is Lambsquarters. The assay can be described thus: Postemergence herbicidal activity, % control of plant growth. As to conditions: Chenopodium album, post-emergence, 264 h, 8 lb/acre, about 11 days. The procedure, abridged:
(§1)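 8 lb/acre, ~2% w/w in acetone and/or alcohol, sprayed on seedlings and soil ~2 wk after sowing. Readout: visual % control, ~11 d.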

Assay [3] concerns Alfalfa. The assay is described as above. As to conditions: Medicago sativa, post-emergence, 264 h, 8 lb/acre, about 11 days. In a few lines:
as §1

For assay [4], the system named is Cheatgrass. The description is as above. The note with it: Bromus tectorum, post-emergence, 264 h, 8 lb/acre, about 11 days. In a few lines: as §1
The subject of assay [5] is Nutgrass. The assay is described as above. The note with it: post-emergence, 264 h, 8 lb/acre, about 11 days. The procedure, abridged:
as §1

Assay [6] concerns Foxtail. Described as above. The note with it: Setaria, post-emergence, 264 h, 8 lb/acre, about 11 days. In a few lines: as §1
Assay [7] has as its system Johnsongrass. Described as above. As to conditions: Sorghum halepense, post-emergence, 264 h, 8 lb/acre, about 11 days. The procedure, abridged:
as §1

Assay [8] has as its system Velvetleaf. The assay is described as above. As to conditions: Abutilon theophrasti, post-emergence, 264 h, 8 lb/acre, about 11 days. In a few lines: as §1
The subject of assay [9] is Snapbeans. The assay is described as above. As to conditions: post-emergence, 264 h, 8 lb/acre, about 11 days. In a few lines:
as §1

The subject of assay [10] is Curled Dock. The assay is described as above. As to conditions: post-emergence, 264 h, 8 lb/acre, about 11 days. In a few lines: as §1
Assay [11] relates to Barnyard Grass. The assay is described as above. The note with it: Echinochloa crus-galli, post-emergence, 264 h, 8 lb/acre, about 11 days. The procedure, abridged:
as §1

Assay [12] deals with Wild Oats. The assay is described as above. As to conditions: Avena fatua, post-emergence, 264 h, 8 lb/acre, about 11 days. In a few lines:
as §1

The subject of assay [13] is Corn. The assay is described as above. The note with it: Zea mays, post-emergence, 264 h, 8 lb/acre, about 11 days. The procedure, abridged: as §1
In assay [14] the test system is Cucumber. The description is as above. The note with it: Cucumis sativus, post-emergence, 264 h, 8 lb/acre, about 11 days. In a few lines:
as §1

Assay [15] relates to Crabgrass. Described as above. The note with it: Digitaria sanguinalis, post-emergence, 264 h, 8 lb/acre, about 11 days. The procedure, abridged: as §1
Assay [16] has as its system Chickweed. The assay is described as above. As to conditions: post-emergence, 264 h, 8 lb/acre, about 11 days. In a few lines:
as §1

The test system of assay [17] is Yellow Rocket. The assay is described as above. The note with it: post-emergence, 264 h, 8 lb/acre, about 11 days. The procedure, abridged:
as §1

The subject of assay [18] is Pigweed. The assay is described as above. As to conditions: Amaranthus retroflexus, post-emergence, 264 h, 8 lb/acre, about 11 days. The procedure, abridged: as §1
Assay [19] has as its system Lambsquarters. Put plainly: Preemergence herbicidal activity, % control of plant growth. As to conditions: Chenopodium album, pre-emergence, 504 h, 16 lb/acre, about 3 weeks. The procedure, abridged: (§2)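 Around three weeks post-treatment, plots were inspected visually and compared with untreated soil to give average % control. Treatment was a pre-emergence spray of about 2 wt% compound in acetone and/or alcohol at 16 lb/acre on freshly seeded soil.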

For assay [20], the system named is Alfalfa. Described as above. The note with it: Medicago sativa, pre-emergence, 504 h, 16 lb/acre, about 3 weeks. The procedure, abridged:
as §2

The test system of assay [21] is Cheatgrass. The description is as above. The note with it: Bromus tectorum, pre-emergence, 504 h, 16 lb/acre, about 3 weeks. The procedure, abridged:
as §2

The subject of assay [22] is Nutgrass. The assay is described as above. The note with it: pre-emergence, 504 h, 16 lb/acre, about 3 weeks. The procedure, abridged: as §2
In assay [23] the test system is Foxtail. Described as above. As to conditions: Setaria, pre-emergence, 504 h, 16 lb/acre, about 3 weeks. The procedure, abridged:
as §2

Assay [24] deals with Johnsongrass. The description is as above. As to conditions: Sorghum halepense, pre-emergence, 504 h, 16 lb/acre, about 3 weeks. The procedure, abridged:
as §2

Assay [25] deals with Velvetleaf. The description is as above. The note with it: Abutilon theophrasti, pre-emergence, 504 h, 16 lb/acre, about 3 weeks. The procedure, abridged:
as §2

The test system of assay [26] is Snapbeans. The description is as above. As to conditions: pre-emergence, 504 h, 16 lb/acre, about 3 weeks. The procedure, abridged: as §2
The subject of assay [27] is Curled Dock. The assay is described as above. As to conditions: pre-emergence, 504 h, 16 lb/acre, about 3 weeks. In a few lines: as §2
In assay [28] the test system is Barnyard Grass. The description is as above. As to conditions: Echinochloa crus-galli, pre-emergence, 504 h; barnyard grass; 16 lb/acre; about 3 weeks. In a few lines:
as §2

The test system of assay [29] is Wild Oats. The assay is described as above. As to conditions: Avena fatua, pre-emergence, 504 h, 16 lb/acre, about 3 weeks. In a few lines: as §2
In assay [30] the test system is Corn. The description is as above. The note with it: Zea mays, pre-emergence, 504 h, 16 lb/acre, about 3 weeks. The procedure, abridged:
as §2

Assay [31] deals with Cucumber. Described as above. The note with it: Cucumis sativus, pre-emergence, 504 h, 16 lb/acre, about 3 weeks. In a few lines: as §2
Assay [32] deals with Crabgrass. The assay is described as above. As to conditions: Digitaria sanguinalis, pre-emergence, 504 h, 16 lb/acre, about 3 weeks. In a few lines:
as §2

Assay [33] has as its system Chickweed. The assay is described as above. The note with it: pre-emergence, 504 h, 16 lb/acre, about 3 weeks. The procedure, abridged:
as §2

For assay [34], the system named is Yellow Rocket. The description is as above. As to conditions: pre-emergence, 504 h, 16 lb/acre, about 3 weeks. The procedure, abridged:
as §2

In assay [35] the test system is Pigweed. The description is as above. As to conditions: Amaranthus retroflexus, pre-emergence, 504 h, 16 lb/acre, about 3 weeks. In a few lines: as §2

As to `O=c1[nH]c2ncccc2c(=O)n1C1CCCCC1` [3-cyclohexyl-pyrido[2,3-d]pyrimidine-2,4-(1H,3H)-dione], in assay [1], the “herbicidal activity” value is “no appreciable herbicidal activity”.
In the case of `CC(C)n1c(=O)[nH]c2ncccc2c1=O` [3-isopropyl-pyrido[2,3-d]pyrimidine-2,4(1H,3H)-dione], the “herbicidal activity” value in assay [1] is “no appreciable herbicidal activity”. The “order of herbicidal activity” value in assay [1] (in vivo) is “no appreciable activity”.
By pest or weed control is commonly meant how far the test organism was held down. High values mean a strong effect, low ones a weak effect. Usually plant injury stands for how far the test organism was held down. The low end stands for weak suppression, the high end for strong suppression. For the molecule `O=c1[nH]c2nccnc2c(=O)n1C1CCCCC1` [Lumazine, 3-cyclohexyl], the pest or weed control at 8966.8 g/ha in the assay on Lambsquarters [2] turned out to be 100%; in the assay with Alfalfa [3], 100%; in the assay with Cheatgrass [4], 50%; in the assay on Nutgrass [5], 100%; with Foxtail [6], 10%; in the assay with Johnsongrass [7] it was 20%. The pest or weed control at 8966.8 g/ha in the assay on Velvetleaf [8] was 100%; in the assay on Snapbeans [9], 100%; in the assay on Curled Dock [10] it was 100%; in the assay on Barnyard Grass [11], 10%; in the assay with Wild Oats [12], 10%; in the assay with Cucumber [14] it was 100%. The pest or weed control at 8966.8 g/ha in the assay with Crabgrass [15] is 20%; in the assay with Chickweed [16] it was 90%; in the assay on Yellow Rocket [17], 100%; with Pigweed [18] it was 90%. Further, the plant injury at 8966.8 g/ha in the assay on Corn [13] is 10%. In addition, the pest or weed control at 17933.6 g/ha is 100% with Lambsquarters [19]; 100% with Alfalfa [20]; 10% with Cheatgrass [21]; 100% with Nutgrass [22]; 20% in the assay on Foxtail [23]; 30% with Johnsongrass [24]. Besides, the pest or weed control at 17933.6 g/ha was determined as 100% in the assay on Velvetleaf [25]; 100% in the assay on Snapbeans [26]; 90% in the assay on Curled Dock [27]; 20% with Barnyard Grass [28]; 20% in the assay on Wild Oats [29]; 100% in the assay on Cucumber [31]. The pest or weed control at 17933.6 g/ha came to 80% with Crabgrass [32], 100% in the assay with Chickweed [33], 100% in the assay with Yellow Rocket [34] and 100% with Pigweed [35]. Besides, the plant injury at 17933.6 g/ha in the assay on Corn [30] worked out at 40%.
`CCC(C)n1c(=O)[nH]c2nccnc2c1=O` (stereo not drawn) [Lumazine, 3-sec-butyl]: the pest or weed control at 8966.8 g/ha with Lambsquarters [2] was 100%; with Alfalfa [3], 50%; with Cheatgrass [4] it was 0%; in the assay with Nutgrass [5], 0%; in the assay on Foxtail [6] it was 0%; in the assay on Johnsongrass [7], 0%. Also, the pest or weed control at 8966.8 g/ha in the assay on Velvetleaf [8] stood at 90%; in the assay with Snapbeans [9], 20%; with Curled Dock [10], 50%; in the assay with Barnyard Grass [11], 0%; with Wild Oats [12] it was 0%; with Cucumber [14], 60%. Further, the pest or weed control at 8966.8 g/ha with Crabgrass [15] came out at 0%; in the assay with Chickweed [16], 0%; in the assay on Yellow Rocket [17], 100%; with Pigweed [18], 20%. In the assay with Corn [13], this molecule gave a plant injury at 8966.8 g/ha of 0%. For the same molecule, the pest or weed control at 17933.6 g/ha was 100% in the assay on Lambsquarters [19]; 100% in the assay with Alfalfa [20]; 90% in the assay with Cheatgrass [21]; 40% with Nutgrass [22]; 30% in the assay with Foxtail [23]; 40% in the assay on Johnsongrass [24]. Further, the pest or weed control at 17933.6 g/ha was determined as 100% with Velvetleaf [25]; 90% in the assay on Snapbeans [26]; 70% in the assay with Curled Dock [27]; 40% in the assay with Barnyard Grass [28]; 30% with Wild Oats [29]; 10% with Cucumber [31]. The pest or weed control at 17933.6 g/ha in the assay on Crabgrass [32] came out at 100%; in the assay on Chickweed [33], 40%; in the assay on Yellow Rocket [34], 100%; in the assay with Pigweed [35], 100%. For the same molecule, in the assay on Corn [30], the plant injury at 17933.6 g/ha was 10%.
`O=c1[nH]c(=O)c2ncccc2[nH]1` [pyrido[3,2-d]pyrimidine-2,4(1H,3H)-dione, reference compound]: the pest or weed control at 8966.8 g/ha with Lambsquarters [2], with Alfalfa [3], with Cheatgrass [4], in the assay on Nutgrass [5], with Foxtail [6] and in the assay on Johnsongrass [7] was 0% in each case. Moreover, the pest or weed control at 8966.8 g/ha with Velvetleaf [8], with Snapbeans [9], in the assay on Curled Dock [10], with Barnyard Grass [11], in the assay on Wild Oats [12] and with Cucumber [14] was 0% in each case. The pest or weed control at 8966.8 g/ha in the assay with Crabgrass [15], with Chickweed [16], with Yellow Rocket [17] and in the assay on Pigweed [18] was 0% in each case. Also, the plant injury at 8966.8 g/ha in the assay on Corn [13] was 0%. Besides, the pest or weed control at 17933.6 g/ha in the assay with Lambsquarters [19], with Alfalfa [20], in the assay with Cheatgrass [21], in the assay on Nutgrass [22], in the assay on Foxtail [23] and with Johnsongrass [24] was 0% each time. In addition, the pest or weed control at 17933.6 g/ha in the assay on Velvetleaf [25], in the assay on Snapbeans [26], in the assay on Curled Dock [27], in the assay on Barnyard Grass [28], in the assay on Wild Oats [29] and in the assay with Cucumber [31] was 0% throughout. For the same molecule, the pest or weed control at 17933.6 g/ha in the assay with Crabgrass [32], in the assay on Chickweed [33], in the assay on Yellow Rocket [34] and with Pigweed [35] was 0% each time. For the same molecule, in the assay with Corn [30], the plant injury at 17933.6 g/ha is 0%.

The values above are taken from patent US3960877A, “N-monosubstituted-2,3-pyridinedicarboxamides, and related compounds” (priority 1974, dated 1976).
